The source of these data is ChEMBL document CHEMBL1136582, “Identification of a high-affinity phosphopeptide inhibitor of Stat3” (Bioorg Med Chem Lett, 2003).

Square brackets hold non-standard residues; d marks the D form. Peptide text beside a SMILES is read from it. * marks the point of attachment. ξ: configuration not given here. Phe(4-tetrazol-5-yl) = N[C@@H](Cc1ccc(-c2nnn[nH]2)cc1)C(=O)O; Phe(4-COOH) = N[C@@H](Cc1ccc(C(=O)O)cc1)C(=O)O; pY = N[C@@H](Cc1ccc(OP(=O)(O)O)cc1)C(=O)O; X1 = NC(=O)[C@H](CO)NC[C@H](CC(=O)O)N*; ξA = CC(N)C(=O)O

The experiment has as its target Signal transducer and activator of transcription 3 (Homo sapiens, UniProt P40763). The experiment can be described thus: Inhibition of Stat3 (Signal transduction and activator of transcription 3) dimerization measured by EMSAs (Electrophoretic mobility shift assay). (In general: A gel shift assay detects complexes by their altered migration in electrophoresis.)

Signal transducer and activator of transcription 3, sequence (P40763 whole entry): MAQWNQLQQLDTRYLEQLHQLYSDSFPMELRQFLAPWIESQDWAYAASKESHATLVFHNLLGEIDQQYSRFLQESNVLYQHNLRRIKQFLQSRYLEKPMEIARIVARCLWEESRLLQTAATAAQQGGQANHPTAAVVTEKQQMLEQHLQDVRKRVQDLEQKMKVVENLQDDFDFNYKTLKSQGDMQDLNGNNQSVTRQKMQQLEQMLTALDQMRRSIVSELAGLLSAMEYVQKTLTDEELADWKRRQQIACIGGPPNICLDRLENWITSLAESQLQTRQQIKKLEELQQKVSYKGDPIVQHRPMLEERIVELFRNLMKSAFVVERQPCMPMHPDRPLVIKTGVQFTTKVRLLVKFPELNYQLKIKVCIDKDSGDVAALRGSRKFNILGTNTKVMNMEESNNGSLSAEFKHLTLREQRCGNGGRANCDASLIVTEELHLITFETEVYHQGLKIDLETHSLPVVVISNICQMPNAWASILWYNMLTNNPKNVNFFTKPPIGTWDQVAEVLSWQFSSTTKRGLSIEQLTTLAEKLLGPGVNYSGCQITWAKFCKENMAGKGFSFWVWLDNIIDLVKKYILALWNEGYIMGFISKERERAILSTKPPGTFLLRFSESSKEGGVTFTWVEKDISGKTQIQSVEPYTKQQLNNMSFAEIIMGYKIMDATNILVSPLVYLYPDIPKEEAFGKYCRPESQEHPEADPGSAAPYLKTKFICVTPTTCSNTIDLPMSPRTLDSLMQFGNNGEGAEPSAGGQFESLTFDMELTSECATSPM

As usually defined, the IC50 is the concentration needed to halve the response being measured. Regarding `CC(=O)N[C@@H](Cc1ccc(C(=O)O)cc1)C(=O)N[C@@H](CC(C)C)C(=O)N1CCC[C@H]1C(=O)N[C@@H](CCC(N)=O)C(=O)N[C@H](C(=O)N[C@H](C(N)=O)C(C)C)[C@@H](C)O` (Ac-[Phe(4-COOH)]LPQTV-NH2), the 50% inhibitory concentration (IC50) is > 6 µM. As to `CC(=O)N[C@@H](Cc1ccc(-c2nn[nH]n2)cc1)C(=O)N[C@@H](CC(C)C)C(=O)N1CCC[C@H]1C(=O)N[C@@H](CCC(N)=O)C(=O)N[C@H](C(=O)N[C@H](C(N)=O)C(C)C)[C@@H](C)O` (Ac-[Phe(4-tetrazol-5-yl)]LPQTV-NH2), the half-inhibitory concentration (IC50) was > 6 µM. Consider `CC(=O)N[C@@H](Cc1ccc(OP(=O)(O)O)cc1)C(=O)N[C@@H](CC(C)C)C(=O)N1CCC[C@H]1C(N)=O` (Ac-[pY]-Leu-Pro-NH2), for which the IC50 was > 6 µM. The result for `CC(=O)N[C@@H](Cc1ccc(OP(=O)(O)O)cc1)C(=O)N[C@@H](C)C(=O)N1CCC[C@H]1C(=O)N[C@@H](CCC(N)=O)C(=O)N[C@H](C(=O)N[C@H](C(N)=O)C(C)C)[C@@H](C)O` (Ac-[pY]APQTV-NH2) reads 1.6 µM; that for `CC(=O)N[C@@H](Cc1ccc(OP(=O)(O)O)cc1)C(=O)N[C@@H](Cc1ccccc1)C(=O)N[C@@H](CCCCN)C(=O)N[C@@H](CCC(N)=O)C(=O)N[C@@H](CC(N)=O)C(=O)N[C@@H](CS)C(N)=O` (Ac-[pY]FKQNC-NH2), 60 µM. Consider `CSCC[C@H](NC(=O)[C@H](CCC(N)=O)NC(=O)[C@@H]1CCCN1C(=O)[C@H](CCCCN)NC(=O)[C@H](Cc1ccc(OP(=O)(O)O)cc1)NC(C)=O)C(=O)N[C@@H](Cc1cnc[nH]1)C(N)=O` (Ac-[pY]KPQMH-NH2), for which the IC50 worked out at 0.4 µM. For the compound `CC(=O)N[C@@H](Cc1ccc(OP(=O)(O)O)cc1)C(=O)N[C@@H](CC(C)C)C(=O)N[C@@H](CCCCN)C(=O)N[C@@H](CCC(N)=O)C(=O)N[C@@H](CCC(=O)O)C(=O)N[C@@H](CO)C(N)=O` (Ac-[pY]LKQES-NH2), the IC50 turned out to be 6 µM. In the case of `CC(=O)N[C@@H](Cc1ccc(OP(=O)(O)O)cc1)C(=O)N[C@@H](CC(C)C)C(=O)N1CCC[C@H]1C(=O)N[C@@H](C)C(=O)N[C@H](C(=O)N[C@H](C(N)=O)C(C)C)[C@@H](C)O` (Ac-[pY]LPATV-NH2), the concentration for half-maximal inhibition (IC50) was > 6 µM. The same measure for `CC(=O)N[C@@H](Cc1ccc(OP(=O)(O)O)cc1)C(=O)N[C@@H](CC(C)C)C(=O)N1CCC[C@H]1C(=O)N[C@@H](CCC(=O)O)C(=O)N[C@H](C(=O)N[C@H](C(N)=O)C(C)C)[C@@H](C)O` (Ac-[pY]LPETV-NH2): > 6 µM. The same measure for `CC(=O)N[C@@H](Cc1ccc(OP(=O)(O)O)cc1)C(=O)N[C@@H](CC(C)C)C(=O)N1CCC[C@H]1C(=O)N[C@@H](CC(N)=O)C(=O)N[C@H](C(=O)N[C@H](C(N)=O)C(C)C)[C@@H](C)O` (Ac-[pY]LPNTV-NH2): 2 µM; for `CC(=O)N[C@@H](Cc1ccc(OP(=O)(O)O)cc1)C(=O)N[C@@H](CC(C)C)C(=O)N1CCC[C@H]1C(=O)N[C@@H](CCC(N)=O)C(=O)N[C@@H](C)C(=O)N[C@H](C(N)=O)C(C)C` (Ac-[pY]LPQAV-NH2): 0.8 µM.

For `CC(=O)N[C@@H](Cc1ccc(OP(=O)(O)O)cc1)C(=O)N[C@@H](CC(C)C)C(=O)N1CCC[C@H]1C(=O)N[C@@H](CCC(N)=O)C(=O)N[C@H](C(=O)N[C@@H](C)C(=O)O)[C@@H](C)O` (Ac-[pY]LPQTA-OH), the half-inhibitory concentration (IC50) amounted to 0.4 µM. The result for `CC(=O)N[C@@H](Cc1ccc(OP(=O)(O)O)cc1)C(=O)N[C@@H](CC(C)C)C(=O)N[C@@H](CCCN=C(N)N)C(=O)N[C@@H](CS)C(=O)N[C@H](CN[C@@H](CO)C(N)=O)CC(=O)O` (Ac-[pY]LRC-X1) reads 80 µM; that for `CC(=O)N[C@@H](Cc1ccc(OP(=O)(O)O)cc1)C(=O)N[C@@H](CC(C)C)C(=O)NC(C)C(=O)N[C@@H](CCC(N)=O)C(=O)N[C@H](C(=O)N[C@H](C(N)=O)C(C)C)[C@@H](C)O` (some centres not stated) (Ac-[pY]L[ξA]QTV-NH2), 4 µM; that for `CSCC[C@H](NC(=O)[C@H](Cc1ccc(OP(=O)(O)O)cc1)NC(C)=O)C(=O)N1CCC[C@H]1C(=O)N[C@@H](CCC(N)=O)C(N)=O` (Ac-[pY]MPQ-NH2), 1.5 µM. As to `CC(=O)N[C@@H](Cc1ccc(OP(=O)(O)O)cc1)C(=O)N[C@@H](CCC(N)=O)C(=O)N[C@@H](CCCCN)C(=O)N[C@@H](CCC(N)=O)C(=O)N[C@H](C(=O)N[C@@H](CCCN=C(N)N)C(N)=O)[C@@H](C)O` (Ac-[pY]QKQTR-NH2), the IC50 was determined as 8 µM. `CC(=O)N[C@@H](Cc1ccc(OP(=O)(O)O)cc1)C(=O)N[C@@H](CCC(N)=O)C(=O)N1CCC[C@H]1C(=O)N[C@@H](CCC(N)=O)C(=O)N[C@@H](C)C(=O)N[C@@H](CCCCN)C(N)=O` (Ac-[pY]QPQAK-NH2): the IC50 was found to be 6 µM. With `CC(=O)N[C@@H](Cc1ccc(OP(=O)(O)O)cc1)C(=O)N[C@@H](CCCN=C(N)N)C(=O)N[C@@H](Cc1cnc[nH]1)C(=O)N[C@@H](CCC(N)=O)C(=O)N[C@H](C(=O)N1CCC[C@H]1C(N)=O)C(C)C` (Ac-[pY]RHQVP-NH2), the IC50 was determined as 6 µM.

As to `CSCC[C@H](NC(=O)[C@H](C)NC(=O)[C@H](CCC(N)=O)NC(=O)[C@@H]1CCCN1C(=O)[C@H](CCCN=C(N)N)NC(=O)[C@H](Cc1ccc(OP(=O)(O)O)cc1)NC(C)=O)C(N)=O` (Ac-[pY]RPQAM-NH2), the IC50 was found to be 1 µM. In the case of `CC(=O)N[C@@H](Cc1ccc(OP(=O)(O)O)cc1)C(=O)N[C@@H](CO)C(=O)N[C@@H](CC(=O)O)C(=O)NCC(=O)N[C@@H](CC(N)=O)C(=O)N[C@@H](Cc1ccccc1)C(N)=O` (Ac-[pY]SDGNF-NH2), the IC50 is > 150 µM. For `CC(=O)N[C@@H](Cc1ccc(OP(=O)(O)O)cc1)C(=O)N[C@@H](CO)C(=O)N[C@H](C(=O)N[C@H](C(=O)N[C@H](C(=O)N[C@@H](Cc1c[nH]cn1)C(N)=O)C(C)C)C(C)C)[C@@H](C)O` (Ac-[pY]STVVH-NH2), the IC50 was > 150 µM. For `CC(=O)N[C@@H](Cc1ccc(OP(=O)(O)O)cc1)C(=O)N[C@H](C(=O)N[C@@H](CC(C)C)C(=O)N[C@@H](CCC(N)=O)C(=O)NCC(=O)N[C@@H](CC(=O)O)C(N)=O)C(C)C` (Ac-[pY]VLQGD-NH2), the IC50 was determined as 8 µM.
